Data published in US20230374177A1, “CYTOSOLIC MICROPARTICLES, PHAGOCYTIC CELLS COMPRISING THE SAME, AND METHODS FOR TREATING DISEASE COMPRISING THE SAME” (Florida State University Research Foundation, Inc., priority 2022, published 2023).

The molecules below were run on RAW264.7 macrophages (assay: Effects of factors on phagosomal rupture at 22° C.). Conditions: 22° C. cold shock; chloroquine 100 μM 30 min, tetrandrine 5 μM 30 min, colchicine 5 μM 3 h, LLOMe 1 mM 30 min, hypotonic shock 0.6×PBS.
Assay type: cell-based
Experimental: Incubation of macrophages with microparticles. […] A prewarmed suspension of macrophages in the complete medium (3.5×10^5 cells/mL, 1 mL, 37° C.) supplemented with LPS (1 μg/mL) was added into a chamber and incubated (5% CO2, 37° C.) for the specified period.
Control. […] After 3 h, the complete medium was replaced with PBS (1 mL, 22° C.) and maintained for 2 min before being imaged.
Hypotonic shock. 0.6×PBS was prepared by mixing PBS with H2O (volume ratio=6:4). […] After 3 h, the complete medium was replaced with the 0.6×PBS (1 mL, 22° C.) and maintained for 2 min before being imaged.
Chloroquine. […] After 2.5 h, chloroquine (10 mM in DMEM) was added to the culture to reach 100 μM and further incubated (5% CO2, 37° C.) for 30 min. The complete medium was replaced with PBS (1 mL, 22° C.) and maintained for 2 min before being imaged.
Tetrandrine. […] After 2.5 h, tetrandrine (5 mM in DMSO) was added to the culture to reach 5 μM and further incubated (5% CO2, 37° C.) for 30 min. The complete medium was replaced with PBS (1 mL, 22° C.) and maintained for 2 min before being imaged.
Colchicine. […] After 3 h, colchicine (2.5 mM in DMEM) was added to the culture at 5 μM and further incubated (5% CO2, 37° C.) for 3 h. The complete medium was replaced with PBS (1 mL, 22° C.) and maintained for 2 min before being imaged.
LLOMe. […] After 2.5 h, LLOMe (10 mM in DMEM) was added to the culture at 1 mM and further incubated (5% CO2, 37° C.) for 30 min. The complete medium was replaced with PBS (1 mL, 22° C.) and maintained for 2 min before being imaged.
For each factor, an experiment was conducted to study its effect. […] Exposure of the macrophages to each factor was conducted either during or before the cold shock.

| Structure (SMILES) | effect on percentage of phagosomal rupture at 22° C. compared to the control |
| --- | --- |
| CCN(CC)CCCC(C)Nc1ccnc2cc(Cl)ccc12 (stereo not drawn) [Chloroquine] | did not induce a significant effect |
| COc1cc2c(c(OC)c1OC)-c1ccc(OC)c(=O)cc1[C@@H](NC(C)=O)CC2 [Colchicine] | insignificant |
| COC(=O)[C@H](CC(C)C)NC(=O)[C@@H](N)CC(C)C.Cl [LLOMe, L-Leucyl-L-leucine methyl ester hydrochloride] | significantly increased |
